ChEMBL document CHEMBL1150008, “Synthesis and -lactamase inhibitory evaluation of novel 6-halo-2-chloromethyl-2-methylpenam-3-carboxylic acids and their sulfones and 6-halo-2-mercaptobenzothiazolylmethyl-2-methylpenam-3-carboxylic acids” (Bioorg Med Chem Lett, 1995)

Key:
[1] = biological target: T1, Beta-lactamase 1 (Bacillus cereus, UniProt P00809); experiment: Tested for the ability to inhibit Beta-lactamase of Bacillus cereus (class A enzyme) with 10 minutes pre-incubation
T1 sequence (P00809 whole entry): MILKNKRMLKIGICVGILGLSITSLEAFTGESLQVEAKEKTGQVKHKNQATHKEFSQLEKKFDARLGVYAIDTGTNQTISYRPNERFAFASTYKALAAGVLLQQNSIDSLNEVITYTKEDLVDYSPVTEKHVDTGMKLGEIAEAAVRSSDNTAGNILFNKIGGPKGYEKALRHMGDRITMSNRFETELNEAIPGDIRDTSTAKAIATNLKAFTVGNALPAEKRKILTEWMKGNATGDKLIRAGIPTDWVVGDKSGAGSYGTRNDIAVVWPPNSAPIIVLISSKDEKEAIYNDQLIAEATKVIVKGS

[2] = biological target: T1, Beta-lactamase 1; experiment: Inhibition of Beta-lactamase of Bacillus cereus (class A enzyme) without pre-incubation

C[C@@]1(CSc2nc3ccccc3s2)S[C@@H]2[C@@H](Cl)C(=O)N2[C@H]1C(=O)O
IC50 [1]: > 5000 µM | IC50 [2]: > 5000 µM

C[C@@]1(CSc2nc3ccccc3s2)S[C@@H]2[C@@H](Br)C(=O)N2[C@H]1C(=O)O
IC50 [1]: > 5000 µM | IC50 [2]: > 5000 µM

C[C@]1(CCl)[C@H](C(=O)O)N2C(=O)[C@H](Cl)[C@H]2S1(=O)=O
IC50 [1]: 70 µM | IC50 [2]: 450 µM

CC1(C)[C@H](C(=O)O)N2C(=O)[C@H](Cl)[C@H]2S1(=O)=O
IC50 [1]: 200 µM | IC50 [2]: 1500 µM

C[C@@]1(CSc2nc3ccccc3s2)S[C@@H]2[C@@H](F)C(=O)N2[C@H]1C(=O)O
IC50 [1]: > 5000 µM | IC50 [2]: > 5000 µM

C[C@]1(CCl)[C@H](C(=O)O)N2C(=O)C[C@H]2S1(=O)=O
IC50 [1]: 300 µM | IC50 [2]: 250 µM

C[C@]1(CCl)[C@H](C(=O)O)N2C(=O)[C@H](F)[C@H]2S1(=O)=O
IC50 [1]: > 3000 µM | IC50 [2]: > 3000 µM

C[C@]1(CCl)[C@H](C(=O)O)N2C(=O)[C@H](Br)[C@H]2S1(=O)=O
IC50 [1]: 1000 µM | IC50 [2]: 3000 µM

CC1(C)[C@H](C(=O)O)N2C(=O)C[C@H]2S1(=O)=O [SULBACTAM]
IC50 [1]: 25 µM | IC50 [2]: 25 µM
